Measured values: paper PMC3234597, “Two Panels of Steroid Receptor Luciferase Reporter Cell Lines for Compound Profiling” (Combinatorial Chemistry & High Throughput Screening, 2011)
Like-named read-outs stand apart in the source and are kept apart here.

How the values were obtained:
Assay type in all cases: cell-based
human GR (full-length) = target: T1, human GR (full-length) (Homo sapiens, UniProt P04150); assay: U2OS-GR/3xGRE luciferase reporter cell line (full-length receptor); settings: for Log EC50: agonist mode, 20 h, log10 of molar EC50, mean ± SEM; for Log EC50 / Log IC50: GR/3xGRE; for Log IC50: antagonist mode, in the presence of 5 nM dexamethasone, log10 of molar IC50, mean ± SEM
T1 construct: expression vectors encoding full-length steroid receptors: pcDNA3-hAR and pcDNA3-hGR; host or cells: U2OS
T1 sequence (P04150 1-777): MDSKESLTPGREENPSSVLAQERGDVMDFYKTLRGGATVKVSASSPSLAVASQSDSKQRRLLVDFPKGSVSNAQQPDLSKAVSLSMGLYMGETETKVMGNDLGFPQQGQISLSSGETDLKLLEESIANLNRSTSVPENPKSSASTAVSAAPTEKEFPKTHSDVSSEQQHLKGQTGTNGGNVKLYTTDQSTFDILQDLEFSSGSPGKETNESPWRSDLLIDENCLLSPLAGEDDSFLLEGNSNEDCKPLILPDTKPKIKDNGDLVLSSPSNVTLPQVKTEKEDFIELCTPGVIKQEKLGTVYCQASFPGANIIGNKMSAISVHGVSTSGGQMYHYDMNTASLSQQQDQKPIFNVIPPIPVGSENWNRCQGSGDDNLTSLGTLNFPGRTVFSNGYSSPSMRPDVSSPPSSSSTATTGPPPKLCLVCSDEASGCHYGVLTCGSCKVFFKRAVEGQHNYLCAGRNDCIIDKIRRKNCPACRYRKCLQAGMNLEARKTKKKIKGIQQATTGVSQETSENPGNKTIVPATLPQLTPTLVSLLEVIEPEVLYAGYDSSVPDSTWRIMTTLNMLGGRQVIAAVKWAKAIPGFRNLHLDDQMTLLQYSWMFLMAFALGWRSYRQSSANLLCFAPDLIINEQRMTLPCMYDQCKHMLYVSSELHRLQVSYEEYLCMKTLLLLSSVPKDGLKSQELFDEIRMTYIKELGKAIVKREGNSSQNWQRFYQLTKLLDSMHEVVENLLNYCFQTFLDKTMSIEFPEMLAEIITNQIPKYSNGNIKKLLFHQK

human AR (full-length) = target: T2, human AR (full-length) (Homo sapiens, UniProt P10275); assay: U2OS-AR/MMTV luciferase reporter cell line (full-length receptor); settings: for Log EC50: agonist mode, 20 h, log10 of molar EC50, mean ± SEM; for Log EC50 / Log IC50: AR/MMTV; for Log IC50: antagonist mode, in the presence of 0.05 nM dihydrotestosterone, log10 of molar IC50, mean ± SEM
T2 construct: expression vectors encoding full-length steroid receptors: pcDNA3-hAR and pcDNA3-hGR; host or cells: U2OS
T2 sequence (P10275 1-920): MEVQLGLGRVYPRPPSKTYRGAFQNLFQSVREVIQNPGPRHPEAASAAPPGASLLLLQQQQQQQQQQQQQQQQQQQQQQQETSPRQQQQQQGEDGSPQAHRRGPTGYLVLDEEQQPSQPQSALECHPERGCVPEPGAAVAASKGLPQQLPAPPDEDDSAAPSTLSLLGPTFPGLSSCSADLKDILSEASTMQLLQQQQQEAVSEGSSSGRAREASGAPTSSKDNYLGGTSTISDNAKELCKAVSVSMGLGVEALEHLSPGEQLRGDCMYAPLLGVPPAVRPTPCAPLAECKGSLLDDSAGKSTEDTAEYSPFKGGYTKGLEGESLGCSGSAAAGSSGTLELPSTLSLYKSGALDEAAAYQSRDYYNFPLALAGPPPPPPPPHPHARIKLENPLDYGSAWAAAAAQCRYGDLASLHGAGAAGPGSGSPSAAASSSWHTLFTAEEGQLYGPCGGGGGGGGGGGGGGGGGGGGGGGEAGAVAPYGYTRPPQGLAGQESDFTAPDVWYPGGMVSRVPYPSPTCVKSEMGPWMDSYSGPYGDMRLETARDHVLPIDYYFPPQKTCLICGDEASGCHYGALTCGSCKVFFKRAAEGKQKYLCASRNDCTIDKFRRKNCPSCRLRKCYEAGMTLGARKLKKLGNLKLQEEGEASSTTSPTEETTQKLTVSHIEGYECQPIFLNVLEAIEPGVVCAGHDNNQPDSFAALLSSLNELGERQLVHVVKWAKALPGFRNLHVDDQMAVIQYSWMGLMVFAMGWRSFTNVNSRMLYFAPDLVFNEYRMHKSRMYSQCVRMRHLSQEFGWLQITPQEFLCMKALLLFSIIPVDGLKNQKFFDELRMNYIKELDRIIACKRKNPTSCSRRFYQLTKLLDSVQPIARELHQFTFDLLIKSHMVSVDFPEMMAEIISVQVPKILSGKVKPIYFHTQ

human MR (full-length) = target: T3, human MR (full-length) (Homo sapiens, UniProt P08235); assay: U2OS-MR/MMTV luciferase reporter cell line (full-length receptor); settings: for Log EC50: agonist mode, 20 h, log10 of molar EC50, mean ± SEM; for Log EC50 / Log IC50: MR/MMTV; for Log IC50: in the presence of 1 nM aldosterone, log10 of molar IC50, mean ± SEM
T3 construct: expression vectors encoding full-length steroid receptors: pcDNA3-hAR, pcDNA3-hGR and pcDNA3-hMR; expressed in transfected cells; host or cells: U2OS
T3 sequence (P08235 1-984): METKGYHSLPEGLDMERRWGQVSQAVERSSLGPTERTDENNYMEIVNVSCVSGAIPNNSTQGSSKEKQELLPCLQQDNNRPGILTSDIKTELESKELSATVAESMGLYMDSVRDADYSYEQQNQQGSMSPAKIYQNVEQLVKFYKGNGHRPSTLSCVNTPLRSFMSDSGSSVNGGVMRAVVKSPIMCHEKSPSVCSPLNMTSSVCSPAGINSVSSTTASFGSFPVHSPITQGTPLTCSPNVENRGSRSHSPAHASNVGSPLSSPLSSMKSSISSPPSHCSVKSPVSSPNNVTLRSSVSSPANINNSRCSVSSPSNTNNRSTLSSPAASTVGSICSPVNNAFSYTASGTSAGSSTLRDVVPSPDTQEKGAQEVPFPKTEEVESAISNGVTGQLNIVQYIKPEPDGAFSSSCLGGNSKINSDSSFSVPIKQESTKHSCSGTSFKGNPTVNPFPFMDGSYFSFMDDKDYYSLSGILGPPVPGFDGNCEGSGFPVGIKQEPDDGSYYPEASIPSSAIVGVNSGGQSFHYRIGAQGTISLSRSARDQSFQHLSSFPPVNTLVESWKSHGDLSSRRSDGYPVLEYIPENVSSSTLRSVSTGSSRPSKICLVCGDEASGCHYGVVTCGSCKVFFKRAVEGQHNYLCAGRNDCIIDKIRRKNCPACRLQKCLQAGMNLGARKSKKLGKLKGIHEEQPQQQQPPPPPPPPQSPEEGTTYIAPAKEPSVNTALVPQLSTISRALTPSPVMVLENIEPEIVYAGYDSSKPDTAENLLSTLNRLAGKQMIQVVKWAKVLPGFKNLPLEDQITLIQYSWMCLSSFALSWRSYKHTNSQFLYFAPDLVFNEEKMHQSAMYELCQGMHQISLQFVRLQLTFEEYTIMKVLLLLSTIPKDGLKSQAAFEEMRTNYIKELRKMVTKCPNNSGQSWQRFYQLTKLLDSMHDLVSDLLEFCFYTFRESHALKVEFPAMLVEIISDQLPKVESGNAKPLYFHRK

| Structure (SMILES) | Log EC50 (human MR (full-length)) [M] | Log IC50 (human MR (full-length); antagonist mode) [M] | EC50 (human GR (full-length); read-out: Log EC50 (converted)) [µM] | EC50 (human AR (full-length)) [µM] | EC50 (human MR (full-length); read-out: Log EC50 (converted)) [µM] | other results |
| --- | --- | --- | --- | --- | --- | --- |
| CC[C@@H]1Cc2cc(O)ccc2C2=C1c1ccc(O)cc1C[C@H]2CC (relative stereo) [R.R-THC, (R,R)-cis-diethyltetrahydro-2,8-chrysenediol] | > -5.40 | -5.45 ± 0.22 |  |  |  | Log EC50 (human GR (full-length)): > -5.00 M; Log IC50 (human GR (full-length)): > -5.00 M; Log EC50 (human AR (full-length)): > -5.00 M; Log IC50 (human AR (full-length)): -5.22 ± 1.26 M |
| C[C@]12CCC(=O)C=C1CC[C@@H]1[C@@H]2[C@@H](O)C[C@]2(C=O)[C@@H](C(=O)CO)CC[C@@H]12 [Aldosterone, aldosterone] |  |  | 0.0302 | > 10 |  |  |
| C[C@H]1C[C@H]2[C@@H]3CCC4=CC(=O)C=C[C@]4(C)[C@@]3(Cl)[C@@H](O)C[C@]2(C)[C@@]1(O)C(=O)CO [Beclomethasone, beclomethasone] | -7.97 ± 0.12 | > -5.00 |  |  |  | activity profile in words (human MR (full-length); full-length MR format, antagonist mode): no sign of antagonistic activity |
| C[C@]12C[C@H](O)[C@H]3[C@@H](CCC4=CC(=O)CC[C@@]43C)[C@@H]1CC[C@@H]2C(=O)CO [Corticosterone, corticosterone] |  |  | 0.00589 |  | 8.13e-05 |  |
| C#C[C@]1(O)CC[C@H]2[C@@H]3CCC4=Cc5oncc5C[C@]4(C)[C@H]3CC[C@@]21C [Danazol, danazol] |  |  | > 10 |  | > 10 |  |
| O=c1c(-c2ccc(O)cc2)coc2cc(O)cc(O)c12 [Genistein, genistein] |  |  |  | > 10 |  | EC50 (human GR (full-length)): > 10 µM; EC50 (human MR (full-length)): > 10 µM |
| C[C@]12CC[C@@H]3c4ccc(O)cc4C[C@@H](CCCCCCCCC[S+]([O-])CCCC(F)(F)C(F)(F)F)[C@H]3[C@@H]1CC[C@@H]2O (stereo partly drawn) [ICI 182.780] | > -5.00 | > -5.00 |  |  |  | Log EC50 (human GR (full-length)): > -5.00 M; Log IC50 (human GR (full-length)): > -5.00 M; Log EC50 (human AR (full-length)): > -5.00 M; Log IC50 (human AR (full-length)): > -5.00 M |
| CCCc1c(-c2ccc(O)cc2)nn(-c2ccc(O)cc2)c1-c1ccc(O)cc1 [PPT, propyl pyrazole triol] |  |  | > 10 | > 10 | > 10 |  |
| CCC(=O)[C@@]1(C)CC[C@H]2[C@@H]3CCC4=CC(=O)CCC4=C3CC[C@@]21C [Promegestone (R5020), promegestone] |  |  | > 3.16 | > 10 | > 10 | IC50 (human AR (full-length)): 0.0126 µM |
| C[C@]12C=CC(=O)C=C1CC[C@H]1[C@@H]3C[C@@H](O)[C@](O)(C(=O)CO)[C@@]3(C)C[C@H](O)[C@@]12F [Triamcinolone, triamcinolone] |  |  | 0.00468 |  | 0.186 |  |
